In ChEMBL document CHEMBL6078667, “Synthesis, Biological Evaluation, and Mechanistic Insights of Rubrolide Analogues as Antitumor Agents” (J Nat Prod, 2024):
Calls of active or inactive are those of the source. The calls are words filed in the database; no cut-off is given here.

Columns and labels:
[1] = test system: HeLa; experiment: Induction of ROS production in human HeLa cells assessed as fold change at 0.2 to 0.4 uM incubated for 24 hrs by DCFH-DA probe based flow cytometric analysis; type: functional; settings: dose 0.2-0.4 µM
[2] = Toxicity in female BALB/c nude mouse xenografted with human HeLa cells assessed as body weight loss at 5 to 20 mg/kg, ip administered as liposome formulation once daily for 13 days; type: organism-based; settings: in vivo, 312 h, dose 5-20 mg/kg, time 13 day
[3] = Drug localization in human HCT-116 cell mitochondria incubated for 8 hrs by Mito-tracker green dye based fluorescence microscopic analysis; type: ADME; settings: hct-116, 8 h
[4] = test system: HCT-116; experiment: Cytotoxicity against human HCT-116 cells assessed as survival rate at 10 uM measured after 72 hrs by MTT assay relative to control; type: functional; settings: read-out: Survival
[5] = test system: HCT-116; experiment: Induction of apoptosis in human HCT-116 cells assessed as necrotic cells at 0.2 uM incubated for 24 hrs by Annexin V-FITC/PI staining based analysis (reference value: 0.083 %); type: functional
[6] = test system: HeLa; experiment: Cell cycle arrest in human HeLa cells assessed as accumulation of cells at G2/M phase at 0.2 uM measured after 24 hrs by PI staining based flow cytometric analysis (reference value: 22.8 %); type: functional
[7] = test system: HeLa; experiment: Antitumor activity against human HeLa cells xenografted in female BALB/c nude mouse assessed as reduction in tumor cell volume at 20 mg/kg, ip administered as liposome formulation once daily for 13 days relative to control; type: functional; parameters: scale not given: the % may be the effect or the level left; settings: time 13 day
[8] = test system: HeLa; experiment: Induction of ROS production in human HeLa cells at 0.2 to 0.4 uM incubated for 24 hrs by DCFH-DA probe based flow cytometric analysis; type: functional, cell-based; settings: dose 0.2-0.4 µM
[9] = test system: HCT-116; experiment: Cytotoxicity against human HCT-116 cells assessed as inhibition of cell growth incubated for 72 hrs by MTT assay; type: functional, cell-based; settings: HCT-116, 72 h
[10] = test system: HeLa; experiment: Antitumor activity against human HeLa cells xenografted in female BALB/c nude mouse assessed as reduction in tumor cell weight at 20 mg/kg, ip administered as liposome formulation once daily for 13 days relative to control; type: functional; parameters: scale not given: the % may be the effect or the level left; settings: time 13 day
[11] = test system: HCT-116; experiment: Cytotoxicity against human HCT-116 cells assessed as inhibition of cell growth at 10 uM measured after 72 hrs by MTT assay relative to control; type: functional
[12] = test system: HeLa; experiment: Induction of apoptosis in human HeLa cells assessed as early apoptotic cells at 0.4 uM incubated for 24 hrs by Annexin V-FITC/PI staining based flow cytometric analysis (reference value: 2.35 %); type: functional
[13] = test system: HCT-116; experiment: Induction of apoptosis in human HCT-116 cells assessed as late apoptotic cells at 0.4 uM incubated for 24 hrs by Annexin V-FITC/PI staining based analysis (reference value: 0.095 %); type: functional
[14] = Drug localization in human HeLa cell mitochondria incubated for 8 hrs by Mito-tracker green dye based fluorescence microscopic analysis; type: ADME
[15] = test system: HeLa; experiment: Induction of apoptosis in human HeLa cells assessed as early apoptotic cells at 0.2 uM incubated for 24 hrs by Annexin V-FITC/PI staining based flow cytometric analysis (reference value: 2.35 %); type: functional
[16] = test system: U-87 MG; experiment: Cytotoxicity against human U-87 MG cells assessed as inhibition of cell growth at 10 uM measured after 72 hrs by MTT assay relative to control; type: functional, U-87MG ATCC
[17] = test system: MGC-803; experiment: Cytotoxicity against human MGC-803 cells assessed as inhibition of cell growth incubated for 72 hrs by MTT assay; type: functional, cell-based; settings: MGC-803, 72 h
[18] = test system: HeLa; experiment: Cell cycle arrest in human HeLa cells assessed as accumulation of cells at G2/M phase at 0.4 uM measured after 24 hrs by PI staining based flow cytometric analysis (reference value: 22.8 %); type: functional
[19] = test system: HCT-116; experiment: Cell cycle arrest in human HCT-116 cells assessed as increase in cyclin B1 expression at 0.2 to 0.4 uM incubated for 24 hrs by Western blot analysis; type: functional, cell-based; settings: dose 0.2-0.4 µM
[20] = test system: HCT-116; experiment: Induction of apoptosis in human HCT-116 cells assessed as viable cells at 0.2 uM incubated for 24 hrs by Annexin V-FITC/PI staining based analysis (reference value: 92.4 %); type: functional; settings: read-out: Activity
[21] = test system: HCT-116; experiment: Induction of apoptosis in human HCT-116 cells assessed as necrotic cells at 0.4 uM incubated for 24 hrs by Annexin V-FITC/PI staining based analysis (reference value: 0.083 %); type: functional
[22] = test system: HCT-116; experiment: Induction of apoptosis in human HCT-116 cells assessed as early apoptotic cells at 0.4 uM incubated for 24 hrs by Annexin V-FITC/PI staining based analysis (reference value: 7.40 %); type: functional
[23] = test system: HCT-116; experiment: Upregulation of CHOP expression in human HCT-116 cells at 0.2 to 0.4 uM measured after 48 hrs by Western blot analysis; type: functional, cell-based; settings: dose 0.2-0.4 µM
[24] = test system: MKN-45; experiment: Cytotoxicity against human MKN-45 cells assessed as inhibition of cell growth incubated for 72 hrs by MTT assay; type: functional, cell-based; settings: MKN-45, 72 h
[25] = test system: HCT-116; experiment: Cell cycle arrest in human HCT-116 cells assessed as accumulation of cells at G2/M phase at 0.4 uM measured after 24 hrs by PI staining based flow cytometric analysis (reference value: 26.4 %); type: functional

In the case of `COc1ccc(C2=CC(=O)O/C2=C\c2ccc(O)cc2)cc1`, the “fold change (FC)” value [1] is reported as >4, the Activity [2] is reported as “Non-toxic” and the Drug uptake [3] is reported as “Not_active”. It also gave a viability at 10 µM [4] of 19.7%, an Activity [5] of 5.89% and an Activity [6] of 58.6%. The Activity [7] was >60%, the Activity [8] was “Active” and the IC50 [9] was 0.2 µM. The Activity [10] was 50%, the inhibition at 10 µM [11] was > 50% and the Activity [12] was 10.5%. The Activity [13] was 14.7%, the Drug uptake [14] was “Not_active” and the Activity [15] was 4.86%. The inhibition at 10 µM [16] was > 50%, the IC50 [17] was 1.1 µM and the Activity [18] was 71.1%. The Activity [19] was “Active”, the viability at 0.2 µM [20] was 82.7% and the Activity [21] was 7.38%. The Activity [22] was 8.33%, the Activity [23] was “Active; Compound Impacts Endoplasmic Reticulum Stress Related Perk-Eif2Alpha-Chop Signalling Pathway” and the IC50 [24] was 0.2 µM. The Activity [25] was 31.6%.
